The text below walks through data of PubChem BioAssay AID463211 (Broad Institute, 2010).

Active and inactive are the calls of the source.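 How the source made its calls: active means loss of HeLa cell viability with AC50 at most tenfold above the top tested dose; inconclusive means flat fit with signal drop between 30% and 70%, or poor fit; inactive means AC50 more than tenfold above top tested dose.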

The test system of this experiment is HeLa viability, ATP luminescence (CellTiterGlo), 48 h. In words: mammalian cell viability by ATP level – luminescence, HeLa, cytotoxicity control for LANA inhibitor project, dose response (AID 463211).
`CC(C)(C)C1(C)OC(=O)C(=Cc2ccc(OCC(=O)Nc3ccccc3)cc2)C(=O)O1` (centres undefined): the AC50 is > 35 µM (inactive).

For `Cc1cccc(N2C(=O)c3cccc4c(N(C)CCO)ccc(c34)C2=O)c1`, the AC50 is > 35 µM (inactive).

Consider `COc1ccc2c3c(cccc13)C(=O)CC2`, for which the AC50 was 22.3 µM.

For the molecule `CN(C)/C=C1\C=C2C(=O)c3ccccc3N2C1=O`, the AC50 is > 35 µM (inactive).

Consider `O=C(CCCN1C(=O)c2cccc3cccc(c23)C1=O)N1CCN(c2ccccc2)CC1`, for which the AC50 was > 35 µM (inactive).

Consider `O=C1c2ccccc2-c2onc3ccc(NCCCn4ccnc4)c1c23`, for which the AC50 was 32.4 µM.

In the case of `O=C1c2ccccc2-c2onc3ccc(NCc4ccco4)c1c23`, the AC50 was 28.5 µM.

Turning to `Cc1n[nH]c(C)c1N1C(=O)c2cccc3c(N4CCCCCC4)ccc(c23)C1=O`, the AC50 was > 35 µM (inactive).

Take `COc1ccc(C2C=C(c3ccc(Br)cc3)Nc3nc(NS(C)(=O)=O)nn32)cc1` (centres undefined): the AC50 was > 35 µM (inactive).

Regarding `CC(C)CSC1=NSC2=NC(=O)/C(=C\c3coc4ccccc4c3=O)C(=N)N12`, the AC50 is > 35 µM (inactive).

Consider `Cc1ccc(Cl)cc1N1CCN(C(=O)C2CCN(S(C)(=O)=O)CC2)CC1`, for which the AC50 is > 35 µM (inactive).

For `Cc1nn(C)cc1N1C(=O)c2cccc3c(N)ccc(c23)C1=O`, the AC50 is > 35 µM (inactive).

`Cc1nn(C)c(C)c1N1C(=O)c2cccc3c(N)ccc(c23)C1=O`: the AC50 is > 35 µM (inactive).

On to `COc1ccc2ccccc2c1C(O)c1nccn1C` (centres undefined), for which the AC50 is > 35 µM (inactive).

`Cc1cc2nc3c(=O)n(Cc4ccccc4)c(=O)[nH]c3nc2cc1N`: the AC50 is > 35 µM (inactive).

Take `Cn1nc(-c2ccccc2)c2nc3ccccc3nc21`: the AC50 was > 35 µM (inactive).

`CCCCCCn1c(=O)[nH]c2nc3cc(N)ccc3nc2c1=O`: the AC50 was > 35 µM (inactive).

As to `COc1cccc2c1C(=O)c1c(O)c3c(c(O)c1C2=O)CC(O)(C(=O)CO)CC3OC1CC(N)C(O)C(C)O1` (centres undefined), the AC50 is 4.4 µM.

On to `CC1Cc2ccccc2N1C(=O)CSc1ncccn1` (centres undefined), for which the AC50 is > 35 µM (inactive).

For the molecule `CC(=O)Nc1ccc(-c2cn3ccsc3n2)cc1`, the AC50 is > 35 µM (inactive).

With `CC1=NCCc2c1[nH]c1cc(O)ccc21`, the AC50 is > 35 µM (inactive).

Regarding `CC(=O)Oc1ccc2c(c1)Oc1cc(OC(C)=O)ccc1C21OC(=O)c2ccccc21`, the AC50 was > 35 µM (inactive).

Turning to `O=C1CCN2C=Nc3cccc4ccc1c2c34`, the AC50 is 8.08 µM.

Take `O=c1ccc2c(-c3ccccc3)c3ccc(O)cc3oc-2c1`: the AC50 was > 35 µM (inactive).

As for `Cc1cc(C)cc(NS(=O)(=O)c2ccc3c(c2)C(C)(C)C(=O)N3C)c1`, the AC50 was > 35 µM (inactive).

As to `CCCCCCCCCCCCCCCC[n+]1ccc(/C=N/O)cc1`, the AC50 was 11.9 µM.

As to `Cc1cc(C)c2nc(C(F)(F)F)nc(NCCCN3CCCC3=O)c2c1`, the AC50 was > 35 µM (inactive).

`O=S(=O)(Nc1cc(Cl)ccc1N1CCOCC1)c1ccccc1Cl`: the AC50 was > 35 µM (inactive).

Regarding `CC(=O)Nc1cccc(N)c1`, the AC50 was > 35 µM (inactive).

A word on the AC50: it is the concentration at which the activity in the assay is half-maximal.
